{"source": "patent US20260158015A1", "about": "(Universite De Bordeaux, priority 2021, published 2026)", "key": {"[1]": {"tested_on": "SARS-CoV-2 reference strain", "assay": "SARS-CoV-2 replication in A549-ACE2 cells (viral genome copies, RT-qPCR)", "format": "cell-based"}, "VSVg pseudotyped LV": {"tested_on": "VSVg pseudotyped LV", "format": "cell-based"}, "[2]": {"assay": "MTT cytotoxicity (CC50) in 293-ACE2 cells", "format": "cell-based", "details": "human, four-parameter sigmoidal fit, unit inferred", "experimental": "(§1) MTT cell viability assay was performed following furnisher protocols. Cells were seeded at the density of 20,000 cells/well in a 96 well plate containing 100 μL complete DMEM (Gibco, USA) supplemented with 10% FBS (Gibco, USA) and 1% Penstrep (Gibco, USA). Cells were incubated for 12 hours at 37° C. in humidified 5% CO2 incubator for adherence. After 12-hour incubation, the media was replaced with fresh media, and cells were treated with compounds. Untreated cells were considered as negative control, DMSO treated cells were considered as the vehicles. After the treatment, cells were incubated at 37° C. in humidified 5% CO2 incubator. 48-hour post-treatment, 20 μL of MTT substrate (5 mg/mL) was added in each well and incubated for 4 additional hours at 37° C. in the dark. The media was then carefully removed, and 492 nm absorbance was measured."}, "SARS-CoV-2": {"tested_on": "SARS-CoV-2", "assay": "SARS-CoV-2 inhibition summarised over all the cell lines", "format": "cell-based", "details": "Severe acute respiratory syndrome coronavirus 2"}, "[3]": {"tested_on": "SARS-CoV-2 reference strain", "assay": "SARS-CoV-2 replication in Calu3 cells (viral genome copies, RT-qPCR)", "format": "cell-based"}, "[4]": {"assay": "MTT cytotoxicity (CC50) in Calu3 cells", "format": "cell-based", "details": "human, four-parameter sigmoidal fit, unit inferred", "experimental": "as §1"}, "[5]": {"tested_on": "HEK-293T, A549, Calu3 and Caco2 cell lines"}, "[6]": {"assay": "MTT cytotoxicity (CC50) in A549-ACE2 cells", "format": "cell-based", "details": "human, A 549-ACE2 cells, four-parameter sigmoidal fit, unit inferred", "experimental": "as §1"}, "[7]": {"tested_on": "lentiviral vectors pseudotyped with the SARS-CoV-2 Spike protein (CoV-2 LV)", "assay": "microbe, parasite or virus in culture", "format": "cell-based"}}}
{"compound": "O=S(=O)(c1ccccc1)n1c(-c2cncc(-c3cc4cc(OCc5ccccc5)ccc4n3S(=O)(=O)c3ccccc3)c2)cc2cc(OCc3ccccc3)ccc21", "note": "[AB-00011778]", "values": [{"measurement": "comparative efficiency in inhibiting the SARS-CoV-2 replication", "setting": "[1]", "value": "more efficient than the Ritonavir molecule"}, {"measurement": "IC50", "setting": "[1]; Severe acute respiratory syndrome coronavirus 2, A549-ACE2, A 549-ACE2 cells, apparent IC50, unit inferred", "value": 250, "unit": "nM"}, {"measurement": "effect on the VSVg LVs infectivity", "setting": "VSVg pseudotyped LV", "value": "without significant effect"}, {"measurement": "CC50 at 48 h", "setting": "[2]", "value": "> 50000", "unit": "nM"}, {"measurement": "inhibition at 1 µM", "setting": "SARS-CoV-2; at 1 μM, pulmonary A549-ACE2 and Calu3 cells, read-out: inhibition of virus replication", "value": "40 to 60", "unit": "%"}, {"measurement": "IC50", "setting": "SARS-CoV-2; read-out: IC50 among all the cell lines", "value": "250 to 5000", "unit": "nM"}, {"measurement": "IC50", "setting": "[3]; Severe acute respiratory syndrome coronavirus 2, Calu-3, SARS-CoV-2 reference strain, 24 hours, read-out: concentration giving 50% inhibition of the viral replication", "value": "~1000", "unit": "nM"}, {"measurement": "IC50", "setting": "[3]; Severe acute respiratory syndrome coronavirus 2, Calu-3, apparent IC50, unit inferred, read-out: IC50", "value": 1000, "unit": "nM"}, {"measurement": "CC50 at 48 h", "setting": "[4]", "value": "> 30000", "unit": "nM"}, {"measurement": "cytotoxicity in various cell lines", "setting": "[5]; various cell lines, no concentration stated", "value": "without showing significant cyto-toxicity"}, {"measurement": "cytotoxicity (MTT assay)", "setting": "[5]; within the 0-50 μM range, HEK-293T, A549, Calu3 and Caco2", "value": "no or poor cytotoxicity"}, {"measurement": "CC50 at 48 h", "setting": "[6]", "value": "> 30000", "unit": "nM"}, {"measurement": "decrease of the viral infectivity (CoV-2 LVs)", "setting": "[7]", "value": "40 to 80", "unit": "%"}, {"measurement": "IC50", "setting": "[7]; Severe acute respiratory syndrome coronavirus 2, 293-ACE2 cells, apparent IC50, unit inferred", "value": 1000, "unit": "nM"}]}
{"compound": "CC(C)c1nc(CN(C)C(=O)N[C@H](C(=O)N[C@@H](Cc2ccccc2)C[C@H](O)[C@H](Cc2ccccc2)NC(=O)OCc2cncs2)C(C)C)cs1", "note": "[Ritonavir, reference compound]", "values": [{"measurement": "comparative efficiency in inhibiting the SARS-CoV-2 replication", "setting": "[1]", "value": "AB-00011778 was more efficient than the Ritonavir molecule"}]}
